In the test the target is methionyl-tRNA synthetase (Trypanosoma brucei brucei) (UniProt Q38C91). Nature of the test: T. brucei MetRS inhibitors, dose response, orthogonal assay for T. brucei MetRS inhibitor project, biochemical, fluorescence polarization (AID 651989). The note with it: Fluorescence polarization biochemical MetRS inhibition. Background: Polarisation of emitted light reports the rotation of a fluorescent probe.

Activity calls are given as the source filed them. No rule for the calls is given here.

Chain of methionyl-tRNA synthetase (Trypanosoma brucei brucei) (Q38C91 1-773): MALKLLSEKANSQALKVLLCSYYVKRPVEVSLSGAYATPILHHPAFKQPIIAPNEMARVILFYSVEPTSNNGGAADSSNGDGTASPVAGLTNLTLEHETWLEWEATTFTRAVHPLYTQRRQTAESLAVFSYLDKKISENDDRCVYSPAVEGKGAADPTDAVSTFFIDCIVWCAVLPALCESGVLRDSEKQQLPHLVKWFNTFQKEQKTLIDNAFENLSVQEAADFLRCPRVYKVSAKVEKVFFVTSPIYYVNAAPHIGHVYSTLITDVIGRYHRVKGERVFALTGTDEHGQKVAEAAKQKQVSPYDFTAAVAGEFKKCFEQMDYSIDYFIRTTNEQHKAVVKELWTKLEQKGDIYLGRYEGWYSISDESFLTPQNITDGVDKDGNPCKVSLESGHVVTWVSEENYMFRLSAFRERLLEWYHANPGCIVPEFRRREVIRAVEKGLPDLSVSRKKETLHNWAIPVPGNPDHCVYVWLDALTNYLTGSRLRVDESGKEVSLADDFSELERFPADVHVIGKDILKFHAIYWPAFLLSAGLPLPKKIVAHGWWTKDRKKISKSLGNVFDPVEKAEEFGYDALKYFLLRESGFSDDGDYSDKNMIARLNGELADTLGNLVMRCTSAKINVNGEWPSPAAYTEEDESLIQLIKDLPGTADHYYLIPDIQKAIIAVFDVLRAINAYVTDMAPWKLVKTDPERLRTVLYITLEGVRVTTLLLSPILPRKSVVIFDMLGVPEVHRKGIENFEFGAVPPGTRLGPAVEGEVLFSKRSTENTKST

Take `O=C(Cc1ccc(Br)cc1)NNC(=O)Nc1ccc(Cl)cc1`: the IC50 (as a rule, the point on the concentration scale where inhibition reaches its midpoint) was > 119 µM (inactive).

As for `N#Cc1ccccc1CSc1ccc(-c2nc3ccccc3[nH]2)cn1`, the IC50 is > 119 µM (inactive).

For `O=C(OCC(=O)c1c[nH]c2ccccc12)c1ccc(OC(F)F)cc1`, the IC50 is > 119 µM (inactive).

For the compound `COc1cc(OC)c(OC)cc1/C=N/Nc1nc2ccccc2[nH]1`, the IC50 was > 119 µM (inactive).

In the case of `Clc1ccccc1-c1ccc2ncnc(NCc3ccc4c(c3)OCO4)c2c1`, the IC50 result was “inactive”.

As for `CO/N=C(\c1nonc1N)N1CCN(c2ccc(Cl)cc2[N+](=O)[O-])CC1`, the IC50 is > 119 µM (inactive).

As to `O=C(NCc1cc(Br)cc(Br)c1OC(=O)c1ccccc1[N+](=O)[O-])c1ccccc1`, the IC50 was > 119 µM (inactive).

Consider `COc1ccc(NC(=O)COC(=O)CCCOc2ccc(Cl)cc2Cl)cc1`, for which the IC50 is > 119 µM (inactive).

As to `Cc1ccc(C(=O)Nn2c(O)c(C=C3N=c4ccccc4=N3)sc2=S)cc1`, the IC50 was > 119 µM (inactive).

For `Cc1cc2c(c(=O)n1CC1CCCO1)C(c1ccc3c(c1)OCO3)C(C#N)=C(N)O2` (stereo not drawn), the IC50 was > 119 µM (inactive).

In the case of `Cc1cc(Cl)ccc1OCCCC(=O)NNC(=O)c1ccccc1O`, the IC50 is > 119 µM (inactive).

Turning to `COc1ccc(CC(=O)OCC(=O)Nc2ccc(Br)cc2)cc1`, the IC50 is > 119 µM (inactive).

With `N#Cc1ccccc1CSc1nc2ncc(Br)cc2[nH]1`, the IC50 was > 119 µM (inactive).

(Values after PubChem BioAssay AID651989 (The Scripps Research Institute Molecular Screening Center, 2013).)
